Consider two compounds from article PMC6938488, “Nafamostat and sepimostat identified as novel neuroprotective agents via NR2B N-methyl-D-aspartate receptor antagonism using a rat retinal excitotoxicity model” (Scientific Reports, 2019).

Where two headings read alike, the source gives them in different places.

The assay has as its target T1, NR2B subunit of NMDA receptor (Rattus norvegicus, UniProt Q00960).
T1 construct: gene Grin2b; native NMDA receptor in rat cerebral cortex membranes; with NR1
Format: binding.

T1 sequence (Q00960 27-1482, other chains not shown): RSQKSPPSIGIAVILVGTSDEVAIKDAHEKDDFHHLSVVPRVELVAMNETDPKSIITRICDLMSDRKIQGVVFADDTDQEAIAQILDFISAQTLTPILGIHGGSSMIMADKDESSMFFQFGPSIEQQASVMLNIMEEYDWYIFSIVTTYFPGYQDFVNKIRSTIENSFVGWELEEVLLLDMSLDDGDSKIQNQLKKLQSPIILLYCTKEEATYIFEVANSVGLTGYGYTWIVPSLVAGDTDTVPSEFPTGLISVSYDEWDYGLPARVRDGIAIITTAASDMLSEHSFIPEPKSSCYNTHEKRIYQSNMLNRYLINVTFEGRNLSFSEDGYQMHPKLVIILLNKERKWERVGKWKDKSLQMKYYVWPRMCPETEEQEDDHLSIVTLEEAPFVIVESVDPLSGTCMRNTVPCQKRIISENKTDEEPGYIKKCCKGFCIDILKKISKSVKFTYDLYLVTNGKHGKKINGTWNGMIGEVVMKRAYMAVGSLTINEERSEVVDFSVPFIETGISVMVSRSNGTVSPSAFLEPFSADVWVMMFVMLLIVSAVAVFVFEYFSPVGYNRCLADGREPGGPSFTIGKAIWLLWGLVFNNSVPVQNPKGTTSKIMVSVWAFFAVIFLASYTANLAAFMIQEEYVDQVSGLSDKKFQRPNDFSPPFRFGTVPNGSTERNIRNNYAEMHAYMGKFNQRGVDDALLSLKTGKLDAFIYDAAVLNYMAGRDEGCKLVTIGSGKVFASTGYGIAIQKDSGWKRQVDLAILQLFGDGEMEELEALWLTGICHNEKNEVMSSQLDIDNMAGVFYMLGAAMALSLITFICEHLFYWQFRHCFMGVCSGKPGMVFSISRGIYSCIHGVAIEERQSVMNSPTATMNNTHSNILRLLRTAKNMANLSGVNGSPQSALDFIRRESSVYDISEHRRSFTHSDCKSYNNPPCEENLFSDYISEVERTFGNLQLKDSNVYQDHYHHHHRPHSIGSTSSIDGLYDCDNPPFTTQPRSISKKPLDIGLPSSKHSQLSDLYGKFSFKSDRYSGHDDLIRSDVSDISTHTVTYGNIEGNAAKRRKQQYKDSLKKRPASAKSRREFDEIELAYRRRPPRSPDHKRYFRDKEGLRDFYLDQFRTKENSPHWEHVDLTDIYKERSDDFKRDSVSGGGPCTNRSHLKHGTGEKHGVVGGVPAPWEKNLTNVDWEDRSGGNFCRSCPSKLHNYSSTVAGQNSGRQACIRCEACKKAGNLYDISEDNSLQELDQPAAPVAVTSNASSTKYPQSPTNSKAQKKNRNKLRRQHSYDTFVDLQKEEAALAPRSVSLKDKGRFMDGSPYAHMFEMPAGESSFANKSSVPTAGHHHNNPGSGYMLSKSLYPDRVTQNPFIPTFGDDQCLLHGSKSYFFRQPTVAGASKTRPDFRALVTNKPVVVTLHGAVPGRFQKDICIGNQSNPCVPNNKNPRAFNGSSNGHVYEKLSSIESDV

In turn, `N=C(N)c1ccc2cc(OC(=O)c3ccc(N=C(N)N)cc3)ccc2c1` [nafamostat] had a Ki of 4.2 µM. `N=C(N)c1ccc2cc(OC(=O)c3ccc(NC4=NCCN4)cc3)ccc2c1` [sepimostat, 6-amidino-2-naphthyl[4-(4,5-dihydro-1H-imidazol-2-yl)amino] benzoate dimethane sulfonate]: the Ki (read-out: Ki) came to 27.7 µM.
